Columns and labels:
[1] = tested on: REV-ERBα F497A, F443A, L480A, F439A, and F484A; test: two-hybrid reporter assay with mutant receptors; format: cell-based, human; settings: F484A vs WT
Experimental: The removal of the bulkier Phe488 sidechain may allow for the ligand binding pocket to wrap around the ligand more tightly, which may explain the higher activity of this mutant REV-ERB.
The NCoR-Vp16 plasmid and REV-ERBα/β-FL GAL4-DBD wild-type or point mutation plasmids were incubated with the transfection agent, Lipofectamine 2000. GFP plasmid was also in the transfection mix to confirm transfection efficiency. HEK cells were plated in 10 cm dishes for western blot analysis, and HEK UAS-luc cells were plated in 96 well plates for luciferase assay analysis. Prior to cellular adherence, transfection mix was added. The cells and transfection mix were incubated at 37 °C in a humidified atmosphere of 5% CO2. The transfection incubation lasted overnight for luciferase assays and 48 h for protein isolation/western blot analysis. For luciferase assays, REV-ERB agonists were added in an 11-point serial dilution the day following overnight transfection. Cells were incubated with the compound for 24 h, prior to luciferin addition and luminescence read out.

[2] = biological target: FXR (Homo sapiens, UniProt Q96RI1); test: Gal4-UAS reporter assay for nuclear receptor specificity; format: cell-based; settings: Gal4 DBD-NR, HEK293 cells, 10 µM
Description: (§1) We assessed the specificity of STL1267 using both in house nuclear receptor Gal4-NR reporter assays and the NIMH Psychoactive Drug Screening Program (PDSP) assays. We assessed the specificity of STL1267 in the PDSP’s radioligand displacement assays, screening for binding to off-target GPCRs, ion channels, transporters, and other drug targets (Table S1). Of the 43 targets assessed in this panel, we observed no detectable binding in 41 of them. […] Additional assessment in serotonin transporter and kappa opioid receptor activity in a functional assay may be warranted to determine absolute specificity.
(§2) Receptor RLBA Ki Receptor activity […]
(§3) HEK293 cells transfected with Gal4-UAS l uc i f eras e and […]

[3] = biological target: GR (Homo sapiens, UniProt P04150); test: as above; format: cell-based; settings: Gal4 DBD-NR, HEK293 cells, 10 µM
Description: as §1, §2, §3

[4] = biological target: RXRα (Homo sapiens, UniProt P19793); test: as above; format: cell-based; settings: Gal4 DBD-NR, HEK293 cells, 10 µM; RXRa
Description: as §1, §2, §3

[5] = biological target: AR (Homo sapiens, UniProt P10275); test: as above; format: cell-based; settings: Gal4 DBD-NR, HEK293 cells, 10 µM
Description: as §1
(§4) Receptor RLBA Ki Receptor activity
(§5) Suppl ementary Tabl e 1. Speci fi ci ty of STL1267. […]
as §3

[6] = biological target: ERα (Homo sapiens, UniProt P03372); test: as above; format: cell-based; settings: Gal4 DBD-NR, HEK293 cells, 10 µM; ERa
Description: as §1, §4, §5, §3

[7] = biological target: ERβ (Homo sapiens, UniProt Q92731); test: as above; format: cell-based; settings: Gal4 DBD-NR, HEK293 cells, 10 µM; ERb
Description: as §1, §4, §5, §3

[8] = biological target: LXRα (Homo sapiens, UniProt Q13133); test: as above; format: cell-based; settings: Gal4 DBD-NR, HEK293 cells, 10 µM; LXRa
Description: as §1, §4, §5, §3

[9] = biological target: MR (Homo sapiens, UniProt P08235); test: as above; format: cell-based; settings: Gal4 DBD-NR, HEK293 cells, 10 µM
Description: as §1, §4, §5, §3

[10] = biological target: PR (Homo sapiens, UniProt P06401); test: as above; format: cell-based; settings: Gal4 DBD-NR, HEK293 cells, 10 µM
Description: as §1, §4, §5, §3

[11] = biological target: RARα (Homo sapiens, UniProt P10276); test: as above; format: cell-based; settings: Gal4 DBD-NR, HEK293 cells, 10 µM; RARa
Description: as §1, §4, §5, §3

[12] = biological target: T1, TRα (Homo sapiens, UniProt P10827); test: as above; format: cell-based; settings: Gal4 DBD-NR, HEK293 cells, 10 µM; TRa
T1 construct: purchased NIMH Psychoactive Drug Screening Program (PDSP); in-house Gal4-NR LBD cotransfection assays
Description: as §1, §4, §5, §3

[13] = biological target: VDR (Homo sapiens, UniProt P11473); test: as above; format: cell-based; settings: Gal4 DBD-NR, HEK293 cells, 10 µM
Description: as §1, §4, §5, §3

[14] = biological target: T2, REV-ERBα LBD (Homo sapiens, UniProt P20393); test: scintillation proximity radioligand binding assay with 3H-STL1267; set-up: made in house; settings: SPA
T2 sequence (P20393 284-614 limits assumed): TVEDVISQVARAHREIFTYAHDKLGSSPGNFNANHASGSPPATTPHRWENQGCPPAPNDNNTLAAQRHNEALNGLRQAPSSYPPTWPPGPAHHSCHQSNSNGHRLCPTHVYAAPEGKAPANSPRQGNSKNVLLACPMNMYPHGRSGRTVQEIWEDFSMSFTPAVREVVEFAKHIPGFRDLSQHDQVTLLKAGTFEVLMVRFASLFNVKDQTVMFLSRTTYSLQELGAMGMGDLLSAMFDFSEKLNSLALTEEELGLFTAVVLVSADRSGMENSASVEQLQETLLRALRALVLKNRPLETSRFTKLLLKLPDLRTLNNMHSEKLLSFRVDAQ

Chain of MR (P08235 726-984 limits assumed): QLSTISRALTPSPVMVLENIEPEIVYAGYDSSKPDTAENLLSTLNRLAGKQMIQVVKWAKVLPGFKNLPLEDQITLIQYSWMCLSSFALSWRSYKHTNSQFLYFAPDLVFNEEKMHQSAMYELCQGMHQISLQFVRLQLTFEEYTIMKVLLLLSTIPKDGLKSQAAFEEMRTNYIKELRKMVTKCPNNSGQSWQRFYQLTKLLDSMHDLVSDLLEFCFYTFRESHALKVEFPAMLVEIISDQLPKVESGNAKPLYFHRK
Chain of RXRα (P19793 227-462 limits assumed): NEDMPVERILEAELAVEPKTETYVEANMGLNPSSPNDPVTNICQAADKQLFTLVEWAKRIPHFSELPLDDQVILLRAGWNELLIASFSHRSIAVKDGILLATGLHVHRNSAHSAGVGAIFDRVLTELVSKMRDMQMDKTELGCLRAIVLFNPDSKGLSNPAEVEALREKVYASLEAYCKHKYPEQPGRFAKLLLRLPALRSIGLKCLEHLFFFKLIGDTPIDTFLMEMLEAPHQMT
Chain of ERα (P03372 311-547 limits assumed): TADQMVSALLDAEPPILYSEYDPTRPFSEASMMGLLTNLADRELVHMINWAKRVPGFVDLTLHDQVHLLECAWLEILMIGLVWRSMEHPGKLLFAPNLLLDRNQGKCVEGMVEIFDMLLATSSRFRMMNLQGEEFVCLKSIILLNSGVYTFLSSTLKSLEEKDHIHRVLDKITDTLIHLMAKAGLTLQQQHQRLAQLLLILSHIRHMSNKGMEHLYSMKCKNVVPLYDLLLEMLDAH
Chain of ERβ (Q92731 264-498 limits assumed): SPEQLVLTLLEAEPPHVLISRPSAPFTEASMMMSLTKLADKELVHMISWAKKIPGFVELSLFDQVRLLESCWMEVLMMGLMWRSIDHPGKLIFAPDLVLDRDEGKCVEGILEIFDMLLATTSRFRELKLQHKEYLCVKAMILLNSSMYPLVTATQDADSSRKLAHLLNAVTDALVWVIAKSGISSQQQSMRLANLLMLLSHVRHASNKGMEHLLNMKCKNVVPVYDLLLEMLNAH
Chain of PR (P06401 679-933 limits assumed): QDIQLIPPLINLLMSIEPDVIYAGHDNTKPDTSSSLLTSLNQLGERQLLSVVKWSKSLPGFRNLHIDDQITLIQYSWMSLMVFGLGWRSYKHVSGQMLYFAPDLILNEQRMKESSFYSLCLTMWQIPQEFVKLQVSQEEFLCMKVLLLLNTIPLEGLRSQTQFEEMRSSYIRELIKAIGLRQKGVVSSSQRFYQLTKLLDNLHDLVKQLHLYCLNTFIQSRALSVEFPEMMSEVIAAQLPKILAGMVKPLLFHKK
Chain of RARα (P10276 183-417 limits assumed): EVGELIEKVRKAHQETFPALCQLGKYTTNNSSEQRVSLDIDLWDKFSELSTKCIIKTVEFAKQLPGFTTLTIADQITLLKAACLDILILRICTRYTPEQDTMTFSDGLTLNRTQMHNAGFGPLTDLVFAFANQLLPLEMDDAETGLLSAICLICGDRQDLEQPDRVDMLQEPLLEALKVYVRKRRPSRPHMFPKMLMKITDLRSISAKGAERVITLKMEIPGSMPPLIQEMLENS
T1 sequence (P10827 1-410 isoform P10827-2): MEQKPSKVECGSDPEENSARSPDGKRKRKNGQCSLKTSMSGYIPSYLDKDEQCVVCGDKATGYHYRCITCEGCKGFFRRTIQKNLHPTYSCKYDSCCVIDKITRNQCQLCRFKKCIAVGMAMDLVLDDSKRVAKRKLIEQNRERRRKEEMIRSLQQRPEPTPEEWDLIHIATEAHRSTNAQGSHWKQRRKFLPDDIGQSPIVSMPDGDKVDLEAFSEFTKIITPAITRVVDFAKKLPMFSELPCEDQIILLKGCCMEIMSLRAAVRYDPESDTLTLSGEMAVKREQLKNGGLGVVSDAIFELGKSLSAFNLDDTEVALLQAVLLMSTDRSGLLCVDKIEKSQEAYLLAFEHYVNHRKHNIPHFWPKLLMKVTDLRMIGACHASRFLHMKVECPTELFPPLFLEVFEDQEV
Chain of GR (P04150 524-777 limits assumed): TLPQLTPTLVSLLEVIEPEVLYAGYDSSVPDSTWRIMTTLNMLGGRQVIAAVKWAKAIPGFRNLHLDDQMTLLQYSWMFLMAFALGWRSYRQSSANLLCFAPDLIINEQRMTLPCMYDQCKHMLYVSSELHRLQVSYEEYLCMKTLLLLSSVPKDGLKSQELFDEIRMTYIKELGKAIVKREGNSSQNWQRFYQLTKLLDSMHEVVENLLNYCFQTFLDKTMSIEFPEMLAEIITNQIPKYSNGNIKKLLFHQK
Chain of FXR (Q96RI1 262-486 limits assumed): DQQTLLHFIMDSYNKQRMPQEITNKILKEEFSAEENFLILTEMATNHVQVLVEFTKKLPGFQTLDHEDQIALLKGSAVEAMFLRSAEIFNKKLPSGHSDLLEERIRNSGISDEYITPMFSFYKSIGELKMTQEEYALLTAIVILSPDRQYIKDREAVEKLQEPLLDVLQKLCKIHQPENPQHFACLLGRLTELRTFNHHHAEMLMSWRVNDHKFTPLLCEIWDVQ
Chain of LXRα (Q13133 209-447 limits assumed): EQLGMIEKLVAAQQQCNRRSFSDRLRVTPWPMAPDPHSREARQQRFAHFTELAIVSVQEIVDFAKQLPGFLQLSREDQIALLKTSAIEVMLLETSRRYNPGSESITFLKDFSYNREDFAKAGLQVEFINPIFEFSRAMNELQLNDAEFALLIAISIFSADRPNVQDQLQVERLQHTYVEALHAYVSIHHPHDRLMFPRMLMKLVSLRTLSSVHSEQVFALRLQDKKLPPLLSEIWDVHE
Chain of AR (P10275 669-920 limits assumed): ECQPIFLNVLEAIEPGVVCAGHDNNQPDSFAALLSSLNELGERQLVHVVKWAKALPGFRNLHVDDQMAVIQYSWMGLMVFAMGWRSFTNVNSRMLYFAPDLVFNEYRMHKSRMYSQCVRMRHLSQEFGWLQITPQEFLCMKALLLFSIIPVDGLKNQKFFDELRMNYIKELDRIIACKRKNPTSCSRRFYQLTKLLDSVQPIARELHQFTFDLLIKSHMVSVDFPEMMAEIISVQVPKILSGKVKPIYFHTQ
Chain of VDR (P11473 127-427 limits assumed): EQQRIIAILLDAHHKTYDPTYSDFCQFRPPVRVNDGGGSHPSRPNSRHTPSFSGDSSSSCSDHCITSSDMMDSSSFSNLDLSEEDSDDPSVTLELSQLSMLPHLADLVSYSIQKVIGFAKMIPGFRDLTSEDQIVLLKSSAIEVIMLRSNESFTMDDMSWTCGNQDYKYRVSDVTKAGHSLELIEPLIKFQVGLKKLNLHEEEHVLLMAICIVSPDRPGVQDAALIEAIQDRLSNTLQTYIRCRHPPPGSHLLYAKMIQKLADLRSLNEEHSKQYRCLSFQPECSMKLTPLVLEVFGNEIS

effect of mutation on STL1267 induced REV-ERBα/NCoR interaction [1]: loss or severe reduction in activity
activity [2]: did not detect activity
activity [3]: did not detect activity
activity [4]: did not detect activity
activity [5]: did not detect activity
activity [6]: did not detect activity
activity [7]: did not detect activity
activity [8]: did not detect activity
activity [9]: did not detect activity
activity [10]: did not detect activity
activity [11]: did not detect activity
activity [12]: did not detect activity
activity [13]: did not detect activity
Ki ([14]; REV-ERBα LBD, read-out: Ki, displacement of 3H-STL1267): 0.16 µM
potency relative to SR9009 in the radioligand binding assay [14]: 4.3 fold
SMILES: Clc1nnc2ccc(Oc3ccccc3-c3ccccc3)nn12 [STL1267]

— article PMC9681850, “Structural basis of synthetic agonist activation of the nuclear receptor REV-ERB” (Nature Communications, 2022)
